# Experiment: In vitro liver microsomal stability assay
# Conditions: human liver microsomes 0.5 mg per mL, NADPH 2 mM, pH 7.4, 1 uM compound, 37° C.; relative to d0 (Example 1)
# Procedure: In Vitro Liver Microsomal Stability Assay
# Human liver microsomal stability assays were conducted at 0.5 mg per mL liver microsome protein with NADPH (2 mM, pH 7.4).
# Reactions were initiated with the addition of NADPH cofactor and were stopped at 0, 5, 15, 20 or 30 min after cofactor addition with stop reagent, acetonitrile. After quenching, plates containing samples were vibrated for 10 min (600 rpm/min) and then centrifuged at 5594 g for 15 min. Supernatant fractions were analyzed by LC-MS/MS to determine the percent remaining and estimate the degradation half-life of the test compounds.
SMILES,Clearance % change over d0 [%],Half-life % change over d0 [%]
"[2H]C([2H])([2H])Oc1ccc(CCNCC(O)COc2cccc(C([2H])([2H])[2H])c2)cc1OC([2H])([2H])[2H] (stereo not shown) [Example 4, [2-[3,4-bis(^2H6)methoxyphenyl]ethyl]([2-hydroxy-3-[3-(^2H3)methylphenoxy]propyl])amine]",−21.15,26.83
"[2H]C([2H])([2H])Oc1ccc(CCNCC(O)COc2cccc(C)c2)cc1OC([2H])([2H])[2H] (stereo not shown) [Example 2, [2-[3,4-bis(^2H6)methoxyphenyl]ethyl][2-hydroxy-3-(3-methylphenoxy)propyl]amine]",1.68,−1.65
"COc1ccc(CCNCC(O)COc2cccc(C)c2)cc1OC (stereo not shown) [Example 1, [2-(3,4-dimethoxyphenyl)ethyl][2-hydroxy-3-(3-methylphenoxy)propyl]amine, reference compound]",0.00,0.00

# Further lines, results first:
Clearance % change over d0 [%],Half-life % change over d0 [%],SMILES
−4.71,4.95,"[2H]C([2H])([2H])c1cccc(OCC(O)CNCCc2ccc(OC)c(OC)c2)c1 (stereo not shown) [Example 3, [2-(3,4-dimethoxyphenyl)ethyl]([2-hydroxy-3-[3-(2H3)methylphenoxy]propyl])amine]"
0.85,−0.84,"[2H]C([2H])([2H])Oc1ccc(CCNC([2H])([2H])C([2H])(O)C([2H])([2H])Oc2cccc(C)c2)cc1OC([2H])([2H])[2H] (stereo not shown) [Example 5, 1-([2-[3,4-bis(^2H6)methoxyphenyl]ethyl]amino)-3-(3-methylphenoxy)(^2H5) propan-2-ol]"

# Source: patent US10722479B2, “Dimethoxyphenyl inhibitors of vesicular monoamine transporter 2” (AUSPEX PHARMACEUTICALS, INC., priority 2015, dated 2020)
